Assay results reported in patent US20260125375A1 (Pfizer Inc., priority 2022, published 2026).
Read-outs that look alike come from different tables or passages of the source.

Columns and labels:
C-CBL (residues 46-435) = biological target: T1, C-CBL (residues 46-435) (Homo sapiens, UniProt P22681); test: Ligand Displacement Assay (LDA), HTRF competitive binding against BODIPY-labeled fluorescent tracer, C-CBL; conditions: geometric mean of the number of tests, read-out: C-CBL Ki (nM) GMean
T1 construct: Purified CBL-B (residues 36-427) and C-CBL (residues 46-435) proteins from baculovirus-infected insect cells; made in house; host or cells: baculovirus-infected insect cells
T1 sequence (P22681 46-435): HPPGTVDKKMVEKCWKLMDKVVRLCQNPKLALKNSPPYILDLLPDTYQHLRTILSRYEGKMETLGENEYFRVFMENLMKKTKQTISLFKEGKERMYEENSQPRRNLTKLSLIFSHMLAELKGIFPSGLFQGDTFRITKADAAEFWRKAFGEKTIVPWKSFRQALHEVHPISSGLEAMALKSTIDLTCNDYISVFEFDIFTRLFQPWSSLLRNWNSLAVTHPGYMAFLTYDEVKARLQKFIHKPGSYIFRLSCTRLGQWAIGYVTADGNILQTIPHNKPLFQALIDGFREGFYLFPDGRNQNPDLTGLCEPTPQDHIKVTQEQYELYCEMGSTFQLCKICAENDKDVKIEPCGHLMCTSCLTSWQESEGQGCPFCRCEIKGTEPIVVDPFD
In short: (§1)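 Competition with a BODIPY fluorescent tracer was read by HTRF, each protein carrying an N-terminal biotinylated AviTag bound to Tb-streptavidin. Tracer KD values were set beforehand per protein; Ki derives from duplicate three-fold compound series ([…], 2% DMSO), averaged geometrically across tests.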

CBL-B (residues 36-427) = biological target: T2, CBL-B (residues 36-427) (Homo sapiens, UniProt Q13191); test: Ligand Displacement Assay (LDA), HTRF competitive binding against BODIPY-labeled fluorescent tracer, CBL-B; conditions: geometric mean of the number of tests, read-out: CBL-B Ki (nM) GMean
T2 construct: Purified CBL-B (residues 36-427) and C-CBL (residues 46-435) proteins from baculovirus-infected insect cells; made in house; host or cells: baculovirus-infected insect cells
In short: as §1

CBL-B = biological target: T3, CBL-B (Homo sapiens, UniProt Q13191); test: Jurkat HiBit-IL2 assay (c-CBL KO), reporter cell line expressing CBL-B only; format: cell-based; conditions: geometric mean, read-out: C-CBL KO EC50 (nM) GMean
T3 construct: endogenous in cells; host or cells: Jurkat HiBit-IL2 reporter cells, C-CBL knocked out by CRISPR
In short: (§2)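 IL-2 secretion was measured by HiBiT luminescence after 1 h compound exposure (0.1% DMSO) and 4 h TCR/CD28 stimulation (final anti-CD3 1 μg/ml, anti-CD28 2 μg/ml, 37 °C) of Jurkat reporters lacking c-CBL or CBL-B. EC50 came from fold-of-effect versus stimulated-only cells, as geometric means across tests.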

C-CBL = biological target: T4, C-CBL (Homo sapiens, UniProt P22681); test: Jurkat HiBit-IL2 assay (CBL-B KO), reporter cell line expressing C-CBL only; format: cell-based; conditions: geometric mean, read-out: CBL-B KO EC50 (nM) GMean
T4 construct: endogenous in cells; host or cells: Jurkat HiBit-IL2 reporter cells, CBL-B knocked out by CRISPR
In short: as §2

[1] = C-CBL KO (expressing CBL-B only), Table 16b (further repetition)
[2] = CBL-B KO (expressing C-CBL only), Table 16b (further repetition)
[3] = c-CBL KO (CBL-B only), anti-CD3/anti-CD28 stimulation 4 hours, Table 16a
[4] = CBL-B KO (C-CBL only), anti-CD3/anti-CD28 stimulation 4 hours, Table 16a

## C[C@H](N)c1nc(C(F)(F)F)cc2c(-c3cccc([C@H](c4nncn4C)C4CCC4)c3)n[nH]c12 [Example K12, (1S)-1-[3-{3-[(R)-cyclobutyl(4-methyl-4H-1,2,4-triazol-3-yl)methyl]phenyl}-5-(trifluoromethyl)-1H-pyrazolo[3,4-c]pyridin-7-yl]ethan-1-amine]
C-CBL (residues 46-435)
  Ki: 136 nM
CBL-B (residues 36-427)
  Ki: 19.3 nM
CBL-B; [1]
  EC50: 895 nM
C-CBL; [2]
  EC50: 2080 nM

## Cn1cnnc1[C@@H](c1cccc(-c2n[nH]c3c(CN[C@H]4CCC[C@@H]4O)nc(C(F)(F)F)cc23)c1)C1CCC1 [Example C4, (1S,2S)-2-({[3-{3-[(R)-cyclobutyl(4-methyl-4H-1,2,4-triazol-3-yl)methyl]phenyl}-5-(trifluoromethyl)-1H-pyrazolo[3,4-c]pyridin-7-yl]methyl}amino)cyclopentan-1-ol]
C-CBL (residues 46-435)
  Ki: 47.4 nM
CBL-B (residues 36-427)
  Ki: 3.3 nM
CBL-B; [3]
  EC50: 114 nM
C-CBL; [4]
  EC50: 1050 nM

## Cn1cnnc1[C@@H](c1cccc(-c2n[nH]c3c(CN[C@@H]4CCC[C@@H]4O)nc(C(F)(F)F)cc23)c1)C1CCC1 [Example C1, (1S,2R)-2-({[3-{3-[(R)-cyclobutyl(4-methyl-4H-1,2,4-triazol-3-yl)methyl]phenyl}-5-(trifluoromethyl)-1H-pyrazolo[3,4-c]pyridin-7-yl]methyl}amino)cyclopentan-1-ol]
C-CBL (residues 46-435)
  Ki: 7.1 nM
CBL-B (residues 36-427)
  Ki: 0.6 nM
CBL-B; [1]
  EC50: 116 nM
CBL-B; [3]
  EC50: 25 nM
C-CBL; [4]
  EC50: 275 nM
C-CBL; [2]
  EC50: 584 nM

## Cn1cnnc1CC1(c2cccc(-c3n[nH]c4c(CN[C@H]5CCC(F)(F)C5)nc(C(F)(F)F)cc34)c2)COC1 [Example C38, (1S)-3,3-difluoro-N-{[3-(3-{3-[(4-methyl-4H-1,2,4-triazol-3-yl)methyl]oxetan-3-yl}phenyl)-5-(trifluoromethyl)-1H-pyrazolo[3,4-c]pyridin-7-yl]methyl}cyclopentan-1-amine]
C-CBL (residues 46-435)
  Ki: 32.9 nM
CBL-B (residues 36-427)
  Ki: 6.9 nM
CBL-B; [3]
  EC50: 71 nM
C-CBL; [4]
  EC50: 494 nM

## CC(c1nc(C(F)(F)F)cc2c(-c3cccc(C4(Cc5nncn5C)COC4)c3)n[nH]c12)N1CCCCC1 (single isomer, unassigned) [Example C21, 3-(3-{3-[(4-methyl-4H-1,2,4-triazol-3-yl)methyl]oxetan-3-yl}phenyl)-7-[(1ξ)-1-(piperidin-1-yl)ethyl]-5-(trifluoromethyl)-1H-pyrazolo[3,4-c]pyridine]
C-CBL (residues 46-435)
  Ki: 93.5 nM
CBL-B (residues 36-427)
  Ki: 21.3 nM
CBL-B; [3]
  EC50: 152 nM
C-CBL; [4]
  EC50: 851 nM

## CC(NC1CNC1)c1nc(C(F)(F)F)cc2c(-c3cccc(C4(Cc5nncn5C)COC4)c3)n[nH]c12 (single isomer, unassigned) [Example C27, N-{(1ξ)-1-[3-(3-{3-[(4-methyl-4H-1,2,4-triazol-3-yl)methyl]oxetan-3-yl}phenyl)-5-(trifluoromethyl)-1H-pyrazolo[3,4-c]pyridin-7-yl]ethyl}azetidin-3-amine]
C-CBL (residues 46-435)
  Ki: 76 nM
CBL-B (residues 36-427)
  Ki: 31.4 nM
CBL-B; [3]
  EC50: > 1290 nM
C-CBL; [4]
  EC50: > 4300 nM

## Cn1cnnc1CC1(c2cccc(-c3n[nH]c4ncc(C(F)(F)F)cc34)c2)COC1 [Example B3, 3-(3-{3-[(4-methyl-4H-1,2,4-triazol-3-yl)methyl]oxetan-3-yl}phenyl)-5-(trifluoromethyl)-1H-pyrazolo[3,4-b]pyridine]
C-CBL (residues 46-435)
  Ki: 363 nM
CBL-B (residues 36-427)
  Ki: 75.3 nM
CBL-B; [3]
  EC50: 1710 nM
C-CBL; [4]
  EC50: 4060 nM

## C[C@@H](N[C@H]1CC[C@@H]1O)c1nc(C(F)(F)F)cc2c(-c3cccc([C@H](c4nncn4C)C4CCC4)c3)n[nH]c12 (single isomer, unassigned) [Example D22]
C-CBL (residues 46-435)
  Ki: 5.8 nM
CBL-B (residues 36-427)
  Ki: 0.8 nM
CBL-B; [1]
  EC50: 12 nM
CBL-B; [3]
  EC50: 5 nM
C-CBL; [4]
  EC50: 79 nM
C-CBL; [2]
  EC50: 91 nM

## CC(C)NC(C)c1nc(C(F)(F)F)cc2c(-c3cccc([C@H](c4nncn4C)C4CCC4)c3)n[nH]c12 (single isomer, unassigned) [Example C35]
C-CBL (residues 46-435)
  Ki: 29.1 nM
CBL-B (residues 36-427)
  Ki: 3.1 nM
CBL-B; [3]
  EC50: 15 nM
C-CBL; [4]
  EC50: 172 nM

## C[C@H](N[C@@H]1CCOC1)c1nc(C(F)(F)F)cc2c(-c3cccc([C@H](c4nncn4C)C4CCC4)c3)n[nH]c12 (single isomer, unassigned) [Example D2]
C-CBL (residues 46-435)
  Ki: 77.1 nM
CBL-B (residues 36-427)
  Ki: 5.8 nM
CBL-B; [1]
  EC50: 83 nM
CBL-B; [3]
  EC50: 42 nM
C-CBL; [4]
  EC50: 465 nM
C-CBL; [2]
  EC50: 425 nM

## C[C@H](N[C@H]1C[C@@H](O)C1)c1nc(C(F)(F)F)cc2c(-c3cccc([C@H](c4nncn4C)C4CCC4)c3)n[nH]c12 (single isomer, unassigned) [Example C36]
C-CBL (residues 46-435)
  Ki: 16.8 nM
CBL-B (residues 36-427)
  Ki: 1.8 nM
CBL-B; [1]
  EC50: 35 nM
CBL-B; [3]
  EC50: 20 nM
C-CBL; [4]
  EC50: 173 nM
C-CBL; [2]
  EC50: 160 nM

## C[C@H](c1nc(C(F)(F)F)cc2c(-c3cccc(C4(Cc5nncn5C)COC4)c3)n[nH]c12)N1C[C@H](F)[C@@H](F)C1 (single isomer, unassigned) [Example D8]
C-CBL (residues 46-435)
  Ki: 113 nM
CBL-B (residues 36-427)
  Ki: 25.4 nM
CBL-B; [3]
  EC50: 603 nM
C-CBL; [4]
  EC50: 1210 nM

## C[C@@H](NC1CCC1)c1nc(C(F)(F)F)cc2c(-c3cccc(C4(Cc5nncn5C)COC4)c3)n[nH]c12 [Example C16]
C-CBL (residues 46-435)
  Ki: 49.3 nM
CBL-B (residues 36-427)
  Ki: 10 nM
CBL-B; [3]
  EC50: 75 nM
C-CBL; [4]
  EC50: 689 nM

## C[C@@H](c1nc(C(F)(F)F)cc2c(-c3cccc(C4(Cc5nncn5C)COC4)c3)n[nH]c12)N1CCC(F)(F)C1 (single isomer, unassigned) [Example D5]
C-CBL (residues 46-435)
  Ki: 148 nM
CBL-B (residues 36-427)
  Ki: 32.7 nM
CBL-B; [3]
  EC50: 650 nM
C-CBL; [4]
  EC50: 1380 nM

## CC(c1nc(C(F)(F)F)cc2c(-c3cccc(C4(Cc5nncn5C)COC4)c3)n[nH]c12)N1CCCCC1 (single isomer, unassigned) [Example C22, 3-(3-{3-[(4-methyl-4H-1,2,4-triazol-3-yl)methyl]oxetan-3-yl}phenyl)-7-[(1ξ)-1-(piperidin-1-yl)ethyl]-5-(trifluoromethyl)-1H-pyrazolo[3,4-c]pyridine]
C-CBL (residues 46-435)
  Ki: 133 nM
CBL-B (residues 36-427)
  Ki: 24.1 nM
CBL-B; [3]
  EC50: 120 nM
C-CBL; [4]
  EC50: 942 nM

## C[C@@H]1CCCN([C@@H](C)c2nc(C(F)(F)F)cc3c(-c4cccc(C5(Cc6nncn6C)COC5)c4)n[nH]c23)C1 (single isomer, unassigned) [Example D13]
C-CBL (residues 46-435)
  Ki: 53.6 nM
CBL-B (residues 36-427)
  Ki: 15 nM
CBL-B; [3]
  EC50: 149 nM
C-CBL; [4]
  EC50: 539 nM

## C[C@@H](N[C@H]1C[C@@H](O)C1)c1nc(C(F)(F)F)cc2c(-c3cccc([C@H](c4nncn4C)C4CCC4)c3)n[nH]c12 (single isomer, unassigned) [Example C37]
C-CBL (residues 46-435)
  Ki: 50.6 nM
CBL-B (residues 36-427)
  Ki: 5.3 nM
CBL-B; [3]
  EC50: 173 nM
C-CBL; [4]
  EC50: 1040 nM

## C[C@H](N[C@@H]1CCC[C@@H]1O)c1nc(C(F)(F)F)cc2c(-c3cccc([C@H](c4nncn4C)C4CCC4)c3)n[nH]c12 (single isomer, unassigned) [Example D15]
C-CBL (residues 46-435)
  Ki: 1 nM
CBL-B (residues 36-427)
  Ki: 0.9 nM
CBL-B; [1]
  EC50: 4 nM
CBL-B; [3]
  EC50: 3 nM
C-CBL; [4]
  EC50: 20 nM
C-CBL; [2]
  EC50: 11 nM

## Cn1cnnc1[C@@H](c1cccc(-c2n[nH]c3c(CN[C@H]4CCC(F)(F)C4)nc(C(F)(F)F)cc23)c1)C1CCC1 (single isomer, unassigned) [Example G1]
C-CBL (residues 46-435)
  Ki: 118 nM
CBL-B (residues 36-427)
  Ki: 11 nM
CBL-B; [3]
  EC50: 70 nM
C-CBL; [4]
  EC50: 775 nM

## CC(NC1CNC1)c1nc(C(F)(F)F)cc2c(-c3cccc(C4(Cc5nncn5C)COC4)c3)n[nH]c12 (single isomer, unassigned) [Example C28, N-{(1ξ)-1-[3-(3-{3-[(4-methyl-4H-1,2,4-triazol-3-yl)methyl]oxetan-3-yl}phenyl)-5-(trifluoromethyl)-1H-pyrazolo[3,4-c]pyridin-7-yl]ethyl}azetidin-3-amine]
C-CBL (residues 46-435)
  Ki: 114 nM
CBL-B (residues 36-427)
  Ki: 33.4 nM
CBL-B; [3]
  EC50: > 2070 nM
C-CBL; [4]
  EC50: > 5190 nM

## C[C@H](N[C@H]1CCC(F)(F)C1)c1nc(C(F)(F)F)cc2c(-c3cccc([C@H](c4nncn4C)C4CCC4)c3)n[nH]c12 [Example C8]
C-CBL (residues 46-435)
  Ki: 3 nM
CBL-B (residues 36-427)
  Ki: 1.1 nM
CBL-B; [3]
  EC50: 6 nM
C-CBL; [4]
  EC50: 44 nM

## C[C@@H](c1nc(C(F)(F)F)cc2c(-c3cccc(C4(Cc5nncn5C)COC4)c3)n[nH]c12)N1CC[C@@H](F)C1 (single isomer, unassigned) [Example D9]
C-CBL (residues 46-435)
  Ki: 71.8 nM
CBL-B (residues 36-427)
  Ki: 17.4 nM
CBL-B; [3]
  EC50: 627 nM
C-CBL; [4]
  EC50: 1770 nM
